According to patent EP4578856A1, “HETEROCYCLIC COMPOUND” (Ubience Inc., priority 2022, dated 2024):

Molecular target: ROCK2 protein (Homo sapiens, UniProt O75116)
Assay: Degradation inducing activity of ROCK2 protein in HUVEC cells, Western blotting (Simple Western JESS)
Format: cell-based
Parameters: endogenous in cells; host or cells: HUVEC (ATCC CRL-1730)
Conditions: HUVEC, 24 h; for inhibition at 1 µM: degradation rate at 1 µM; for inhibition at 10 µM: degradation rate at 10 µM
Procedure, shortened: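 HUVEC cells treated 24 h with compound at 10 µM or 1 µM, then lysed; ROCK2 quantified by capillary Western (Simple Western JESS) using rabbit mAb D1B1, normalized to total loaded protein. Degradation rate (%) calculated relative to DMSO control set at 100%, binned A ≥75%, B 50–75%, C 25–50%, D <25%.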

Sequence of ROCK2 protein (O75116 whole entry): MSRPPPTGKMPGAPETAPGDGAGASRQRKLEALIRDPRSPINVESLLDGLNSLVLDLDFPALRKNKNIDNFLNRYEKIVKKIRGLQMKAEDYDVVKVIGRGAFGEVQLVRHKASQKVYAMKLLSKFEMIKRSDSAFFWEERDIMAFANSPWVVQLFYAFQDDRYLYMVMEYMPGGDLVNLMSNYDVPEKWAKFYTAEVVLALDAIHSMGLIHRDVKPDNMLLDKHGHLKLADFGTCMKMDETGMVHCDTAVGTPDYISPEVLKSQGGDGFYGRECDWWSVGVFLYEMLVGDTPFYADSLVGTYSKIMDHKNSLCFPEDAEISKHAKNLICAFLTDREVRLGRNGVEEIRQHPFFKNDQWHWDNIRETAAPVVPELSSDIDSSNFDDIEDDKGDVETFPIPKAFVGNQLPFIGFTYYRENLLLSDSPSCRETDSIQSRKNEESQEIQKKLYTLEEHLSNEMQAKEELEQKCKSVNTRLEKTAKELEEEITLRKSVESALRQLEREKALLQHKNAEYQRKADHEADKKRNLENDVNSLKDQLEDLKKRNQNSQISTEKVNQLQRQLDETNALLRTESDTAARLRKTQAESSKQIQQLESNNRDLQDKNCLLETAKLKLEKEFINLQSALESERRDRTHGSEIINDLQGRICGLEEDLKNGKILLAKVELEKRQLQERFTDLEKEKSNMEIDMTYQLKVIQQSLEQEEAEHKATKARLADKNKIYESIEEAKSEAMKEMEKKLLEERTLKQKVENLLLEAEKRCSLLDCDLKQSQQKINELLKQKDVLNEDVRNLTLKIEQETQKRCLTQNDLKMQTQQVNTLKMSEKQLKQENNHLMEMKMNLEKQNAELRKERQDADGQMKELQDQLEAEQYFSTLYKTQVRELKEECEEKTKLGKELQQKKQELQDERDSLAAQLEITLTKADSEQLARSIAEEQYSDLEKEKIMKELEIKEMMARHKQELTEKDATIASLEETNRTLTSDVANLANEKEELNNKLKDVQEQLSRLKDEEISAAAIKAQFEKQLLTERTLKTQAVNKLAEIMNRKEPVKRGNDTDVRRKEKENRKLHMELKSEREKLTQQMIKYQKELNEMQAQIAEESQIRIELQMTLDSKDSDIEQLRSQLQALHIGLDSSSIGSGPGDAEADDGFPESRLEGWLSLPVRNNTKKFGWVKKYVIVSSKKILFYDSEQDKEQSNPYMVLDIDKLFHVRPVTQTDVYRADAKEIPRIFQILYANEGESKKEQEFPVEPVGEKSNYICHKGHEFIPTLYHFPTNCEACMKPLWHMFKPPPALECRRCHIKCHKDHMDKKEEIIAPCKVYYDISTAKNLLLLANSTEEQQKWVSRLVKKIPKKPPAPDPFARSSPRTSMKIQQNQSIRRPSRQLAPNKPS

SMILES	inhibition at 1 µM	inhibition at 10 µM
COC[C@H]1CN[C@H](C)CN1CC(=O)N1CC(C)(C)c2ncc(Cc3cccc(OCCOCCOCCOCCOCCOCCOCCOCCN[C@H](C)c4ccc(C(=O)Nc5ccncc5)cc4)c3)cc21 [Example 49, 4-((R)-26-(3-((1-(2-((2R,5R)-2-(Methoxymethyl)-5-methylpiperazin-1-yl)acetyl)-3,3-dimethyl-2,3-dihydro-1H-pyrrolo[3,2-b]pyridin-6-yl)methyl)phenoxy)-6,9,12,15,18,21,24-heptaoxa-3-azahexacosan-2-yl)-N-(pyridin-4-yl)benzamide]	≥ 75%	50 to 75%
C[C@@H]1CN(CC(=O)N2CC(C)(C)c3ncc(Cc4ccc(F)cc4)cc32)[C@@H](CN(C)CCOCCNC[C@@H](C(=O)Nc2ccc3cnccc3c2)c2ccccc2)CN1 [Example 15, (S)-3-((2-(2-((((2R,5R)-1-(2-(6-(4-Fluorobenzyl)-3,3-dimethyl-2,3-dihydro-1H-pyrrolo[3,2-b]pyridin-1-yl)-2-oxoethyl)-5-methylpiperazin-2-yl)methyl)(methyl)amino)ethoxy)ethyl)amino)-N-(isoquinolin-6-yl)-2-phenylpropanamide]	< 25%	≥ 75%
COC[C@H]1CN[C@H](C)CN1CC(=O)N1CC(C)(C)c2nc(CN(C)CCOCCN[C@H](C)c3ccc(C(=O)Nc4ccncc4)cc3)c(Cc3ccc(F)cc3)cc21 [Example 22, 4-((R)-1-((2-(2-(((6-(4-Fluorobenzyl)-1-(2-((2R,5R)-2-(methoxymethyl)-5-methylpiperazin-1-yl)acetyl)-3,3-dimethyl-2,3-dihydro-1H-pyrrolo[3,2-b]pyridin-5-yl)methyl)(methyl)amino)ethoxy)ethyl)amino)ethyl)-N-(pyridin-4-yl)benzamide]	< 25%	≥ 75%
COC[C@H]1CN[C@H](C)CN1CC(=O)N1CC(C)(C)c2nc(CN(C)CCOCCOCCOCCOCCN[C@H](C)c3ccc(C(=O)Nc4ccncc4)cc3)c(Cc3ccc(F)cc3)cc21 [Example 25, 4-((R)-1-(6-(4-Fluorobenzyl)-1-(2-((2R,5R)-2-(methoxymethyl)-5-methylpiperazin-1-yl)acetyl)-3,3-dimethyl-2,3-dihydro-1H-pyrrolo[3,2-b]pyridin-5-yl)-2-methyl-5,8,11,14-tetraoxa-2,17-diazanonadecan-18-yl)-N-(pyridin-4-yl)benzamide]	≥ 75%	≥ 75%
COC[C@H]1CN[C@H](C)CN1CC(=O)N1CC(C)(C)c2ncc(Cc3cccc(OCCOCCOCCOCCOCCOCCN[C@H](C)c4ccc(C(=O)Nc5ccncc5)cc4)c3)cc21 [Example 47, 4-((R)-20-(3-((1-(2-((2R,5R)-2-(Methoxymethyl)-5-methylpiperazin-1-yl)acetyl)-3,3-dimethyl-2,3-dihydro-1H-pyrrolo[3,2-b]pyridin-6-yl)methyl)phenoxy)-6,9,12,15,18-pentaoxa-3-azaicosan-2-yl)-N-(pyridin-4-yl)benzamide]	50 to 75%	≥ 75%
C[C@@H]1CN(CC(=O)N2CC(C)(C)c3ncc(Cc4ccc(F)cc4)cc32)[C@@H](CN(C)CCOCCOCCOCCOCCOCCOCCNC[C@@H](C(=O)Nc2ccc3cnccc3c2)c2ccccc2)CN1 [Example 20, (S)-1-((2R,5R)-1-(2-(6-(4-Fluorobenzyl)-3,3-dimethyl-2,3-dihydro-1H-pyrrolo[3,2-b]pyridin-1-yl)-2-oxoethyl)-5-methylpiperazin-2-yl)-N-(isoquinolin-6-yl)-2-methyl-25-phenyl-5,8,11,14,17,20-hexaoxa-2,23-diazahexacosan-26-amide]	50 to 75%	≥ 75%
C[C@@H]1CN(CC(=O)N2CC(C)(C)c3ncc(Cc4ccc(F)cc4)cc32)[C@@H](CN(C)CCOCCN[C@H](Cc2cccc(F)c2)C(=O)Nc2ccc(-c3ccncc3)cc2)CN1 [Example 8, (R)-2-((2-(2-((((2R,5R)-1-(2-(6-(4-Fluorobenzyl)-3,3-dimethyl-2,3-dihydro-1H-pyrrolo[3,2-b]pyridin-1-yl)-2-oxoethyl)-5-methylpiperazin-2-yl)methyl) (methyl)amino)ethoxy)ethyl)amino)-3-(3-fluorophenyl)-N-(4-(pyridin-4-yl)phenyl)propanamide]	25 to 50%	≥ 75%
C[C@@H]1CN(CC(=O)N2CC(C)(C)c3ncc(Cc4ccc(F)cc4)cc32)[C@@H](CN(C)CCOCCOCCOCCOCCOCCN[C@H](Cc2cccc(F)c2)C(=O)Nc2ccc(-c3ccncc3)cc2)CN1 [Example 12, (R)-21-(3-Fluorobenzyl)-1-((2R,5R)-1-(2-(6-(4-fluorobenzyl)-3,3-dimethyl-2,3-dihydro-1H-pyrrolo[3,2-b]pyridin-1-yl)-2-oxoethyl)-5-methylpiperazin-2-yl)-2-methyl-N-(4-(pyridin-4-yl)phenyl)-5,8,11,14,17-pentaoxa-2,20-diazadocosan-22-amide]	< 25%	25 to 50%
COC[C@H]1CN[C@H](C)CN1CC(=O)N1CC(C)(C)c2nc(CN(C)CCOCCOCCOCCOCCOCCOCCOCCN[C@H](C)c3ccc(C(=O)Nc4ccncc4)cc3)c(Cc3ccc(F)cc3)cc21 [Example 28, 4-((R)-1-(6-(4-Fluorobenzyl)-1-(2-((2R,5R)-2-(methoxymethyl)-5-methylpiperazin-1-yl)acetyl)-3,3-dimethyl-2,3-dihydro-1H-pyrrolo[3,2-b]pyridin-5-yl)-2-methyl-5,8,11,14,17,20,23-heptaoxa-2,26-diazaoctacosan-27-yl)-N-(pyridin-4-yl)benzamide]	50 to 75%	< 25%

Results, then the molecule that gave them:

inhibition at 1 µM	inhibition at 10 µM	SMILES
50 to 75%	25 to 50%	COC[C@H]1CN[C@H](C)CN1CC(=O)N1CC(C)(C)c2ncc(Cc3ccccc3OCCOCCOCCOCCOCCOCCOCCOCCNC[C@@H](C(=O)Nc3ccc4cnccc4c3)c3ccccc3)cc21 [Example 84, (S)-N-(Isoquinolin-6-yl)-1-(2-((1-(2-((2R,5R)-2-(methoxymethyl)-5-methylpiperazin-1-yl)acetyl)-3,3-dimethyl-2,3-dihydro-1H-pyrrolo[3,2-b]pyridin-6-yl)methyl)phenoxy)-26-phenyl-3,6,9,12,15,18,21-heptaoxa-24-azaheptacosan-27-amide]
25 to 50%	≥ 75%	COC[C@H]1CN[C@H](C)CN1CC(=O)N1CC(C)(C)c2ncc(Cc3cccc(OCCOCCNC[C@@H](C(=O)Nc4ccc5cnccc5c4)c4ccccc4)c3)cc21 [Example 57, (S)-N-(Isoquinolin-6-yl)-3-((2-(2-(3-((1-(2-((2R,5R)-2-(methoxymethyl)-5-methylpiperazin-1-yl)acetyl)-3,3-dimethyl-2,3-dihydro-1H-pyrrolo[3,2-b]pyridin-6-yl)methyl)phenoxy)ethoxy)ethyl)amino)-2-phenylpropanamide]
≥ 75%	25 to 50%	COC[C@H]1CN[C@H](C)CN1CC(=O)N1CC(C)(C)c2ncc(Cc3cccc(OCCOCCOCCOCCOCCOCCN[C@H](Cc4cccc(F)c4)C(=O)Nc4ccc(-c5ccncc5)cc4)c3)cc21 [Example 54, (R)-2-(3-Fluorobenzyl)-20-(3-((1-(2-((2R,5R)-2-(methoxymethyl)-5-methylpiperazin-1-yl)acetyl)-3,3-dimethyl-2,3-dihydro-1H-pyrrolo[3,2-b]pyridin-6-yl)methyl)phenoxy)-N-(4-(pyridin-4-yl)phenyl)-6,9,12,15,18-pentaoxa-3-azaicosanamide]
≥ 75%	≥ 75%	COC[C@H]1CN[C@H](C)CN1CC(=O)N1CC(C)(C)c2ncc(Cc3cccc(OCCOCCOCCOCCNC[C@@H](C(=O)Nc4ccc5cnccc5c4)c4ccccc4)c3)cc21 [Example 59, (S)-N-(Isoquinolin-6-yl)-1-(3-((1-(2-((2R,5R)-2-(methoxymethyl)-5-methylpiperazin-1-yl)acetyl)-3,3-dimethyl-2,3-dihydro-1H-pyrrolo[3,2-b]pyridin-6-yl)methyl)phenoxy)-14-phenyl-3,6,9-trioxa-12-azapentadecan-15-amide]
< 25%	50 to 75%	COC[C@H]1CN[C@H](C)CN1CC(=O)N1CC(C)(C)c2ncc(Cc3ccccc3OCCOCCOCCOCCOCCOCCN[C@H](Cc3cccc(F)c3)C(=O)Nc3ccc(-c4ccncc4)cc3)cc21 [Example 75, (R)-2-(3-Fluorobenzyl)-20-(2-((1-(2-((2R,5R)-2-(methoxymethyl)-5-methylpiperazin-1-yl)acetyl)-3,3-dimethyl-2,3-dihydro-1H-pyrrolo[3,2-b]pyridin-6-yl)methyl)phenoxy)-N-(4-(pyridin-4-yl)phenyl)-6,9,12,15,18-pentaoxa-3-azaicosanamide]
25 to 50%	≥ 75%	COC[C@H]1CN[C@H](C)CN1CC(=O)N1CC(C)(C)c2ncc(Cc3cccc(OCCOCCOCCOCCOCCNC[C@@H](C(=O)Nc4ccc5cnccc5c4)c4ccccc4)c3)cc21 [Example 60, (S)-N-(Isoquinolin-6-yl)-1-(3-((1-(2-((2R,5R)-2-(methoxymethyl)-5-methylpiperazin-1-yl)acetyl)-3,3-dimethyl-2,3-dihydro-1H-pyrrolo[3,2-b]pyridin-6-yl)methyl)phenoxy)-17-phenyl-3,6,9,12-tetraoxa-15-azaoctadecan-18-amide]
25 to 50%	≥ 75%	COC[C@H]1CN[C@H](C)CN1CC(=O)N1CC(C)(C)c2ncc(Cc3ccccc3OCCOCCOCCOCCOCCOCCNC[C@@H](C(=O)Nc3ccc4cnccc4c3)c3ccccc3)cc21 [Example 82, (S)-N-(Isoquinolin-6-yl)-1-(2-((1-(2-((2R,5R)-2-(methoxymethyl)-5-methylpiperazin-1-yl)acetyl)-3,3-dimethyl-2,3-dihydro-1H-pyrrolo[3,2-b]pyridin-6-yl)methyl)phenoxy)-20-phenyl-3,6,9,12,15-pentaoxa-18-azahenicosan-21-amide]
